{
  "source": "patent US12421216B2",
  "about": "“Voruciclib polymorphs and methods of making and using thereof” (MEI PHARMA, INC., priority 2019, dated 2025)",
  "format_in_all_cases": "physicochemical",
  "key": {"[1]": {"test": "Physical stability upon exposure to accelerated aging conditions (AAC, 40° C./75% RH), re-analysis by HT-XRPD"}, "[2]": {"test": "Physical stability of solid forms upon drying under vacuum, HT-XRPD", "method": "(§1) Amorphous voruciclib oxalate salt, generated by freeze-drying, was used to start the thermocycling experiments. Suspensions were prepared in the selected solvent systems at RT. Subsequently, the mixtures were subjected to a temperature profile. After the temperature profile, the solids were separated from the solutions by centrifugation and were dried at ambient conditions and under deep vacuum before being harvested and analyzed by HT-XRPD. The liquid phases were also dried under deep vacuum before being harvested and analyzed by HT-XRPD. All solids were exposed to AAC (40° C./75% RH, 2 days).\n(§2) After the temperature profile, the solids were separated from the liquids by centrifugation and the solid phase was dried at ambient conditions and under deep vacuum (5 mbar) before being harvested and analyzed by HT-XRPD. The liquid phases were dried under deep vacuum (5 mbar) and the recovered solids were analyzed by HT-XRPD. All solids were then exposed to accelerated aging conditions (40° C./75% RH, 2 days) followed by HT-XRPD re-analysis.\nas §1, with “voruciclib phosphate” for “voruciclib oxalate”, “profile. Upon completion of” for “profile. After”, “dried under” for “dried at”\nas §2, with “dried under” for “dried at”, “(5 mbar, 18 h)” for “(5 mbar)”\nAmorphous voruciclib malonate salt, generated by freeze-drying, was used to start the thermocycling experiments. Suspensions were prepared in the selected solvent systems at RT and were subjected to three thermocycles between 50 and 5° C., followed by aging at 25° C. for 3 days. Upon completion of the aging time, the solids were separated from the liquids by centrifugation and they were dried at ambient conditions and under deep vacuum (5 mbar) before being harvested and analyzed by HT-XRPD.\nAfter the temperature profile the solids were separated from the solution by centrifugation and they were dried at ambient conditions and under deep vacuum before being harvested and analyzed by HT-XRPD."}, "[3]": {"test": "Solubility of salts in water and in 0.2 M phosphate buffer pH 6 at 37° C. after 4 hours (HPLC-DAD)", "settings": "for pH (4 h): pH at end of equilibration", "method": "Two sets of solubility experiments were performed. […] In the second set of solubility experiments about 5 mg of the salt was weighed in a standard 1.8 mL HPLC vial. Subsequently, aliquots of 200 μL of aqueous medium were added up to a maximum of 1 mL, while making observations regarding the dissolution behavior of the salts. The vials were left to equilibrate at 37° C. with continuous stirring (see Table 25 for details). After 4 hours the solids were separated from the liquid by centrifugation and the liquid phase was further filtrated through a […] PTFE filter to remove any particulate matter. The concentration of solute was determined by HPLC-DAD analysis. A calibration curve was made from two independent stock solutions of voruciclib prepared in acetonitrile/water. The pH was recorded at the end of the equilibration time."}, "[4]": {"test": "Approximate solubility assessment of the free base by the solvent (aliquot) addition method", "settings": "for Solubility in words / solubility: RT; for solubility: thermodynamic from solid", "method": "The approximate solubility of the free base was assessed in several organic solvents (Table 17) by the solvent addition method. To about 5 mg of free base, aliquots of solvent were added until complete dissolution was observed or until a concentration […] was reached. Aliquots of 100 μL were used up to 2 mL, followed by aliquots of 1 mL up to 8 mL. […] Based on the solubility results, in some embodiments the crystallization solvents selected for salt formation were THF, ethanol and acetone.\nThe solubility assessment was performed according to the aliquot addition method and visually assessed. About 5 mg of free base was weighed into 8 mL glass vials. Aliquots of 100 μL were added up to 2 mL, followed by aliquots of 1 mL up to 8 mL. The experimental conditions are described in Table 21."}, "[5]": {"test": "Thermal stability of the free base in solution (HPLC)", "settings": "for Area (HPLC): 1 h"}, "[6]": {"settings": "0.2M phosphate buffer pH 6, 37° C., about 1 mg salt in 1 mL"}, "[7]": {"settings": "0.2M phosphate buffer pH 6, 37° C., about 5 mg salt in 1 mL"}, "[8]": {"settings": "water, 37° C., about 1 mg salt in 1 mL"}, "[9]": {"settings": "water, 37° C., about 5 mg salt, up to 1 mL"}},
  "note": "Entries after “also recorded” stand apart in the source; their conditions may differ.",
  "data": [
    {"smiles": "CN1CC[C@@H](c2c(O)cc(O)c3c(=O)cc(-c4ccc(C(F)(F)F)cc4Cl)oc23)[C@@H]1CO.CN1CC[C@@H](c2c(O)cc(O)c3c(=O)cc(-c4ccc(C(F)(F)F)cc4Cl)oc23)[C@@H]1CO.O.O=C(O)C(=O)O", "note": "[Oxa1]", "values": [
      {"measurement": "Physical stability upon exposure to AAC", "setting": "[1]; 40° C./75% RH, 2 days, HT-XRPD before and after", "value": "stable when exposed to advanced aging conditions; also recorded: physically stable under short term stress conditions; also recorded: physically stable upon exposure to AAC for two days; also recorded: remained stable upon exposure to AAC"},
      {"measurement": "Stability AAC", "setting": "[1]; oxalate salt cooling crystallization solids, AAC (40° C./75% RH, 1 day)", "value": "Stable"},
      {"measurement": "Solid forms Vacuum AAC", "setting": "[1]; oxalate salt thermocycling, vacuum-dried solids after AAC (40° C./75% RH, 2 days), HT-XRPD", "value": "Oxa1"},
      {"measurement": "Solid phase AAC (XRPD form after accelerated aging)", "setting": "[1]; precipitated solids of the salt screen, dried under vacuum at 50° C., 40° C./75% RH for 2 days, HT-XRPD", "value": "Oxa1"},
      {"measurement": "Stable during AAC", "setting": "[1]; salt screen solids, 40° C./75% RH, 2 days", "value": "Yes"},
      {"measurement": "Vacuum", "setting": "[2]; oxalate salt cooling crystallization, form after drying under deep vacuum (5 mbar), label = ambient-dried form", "value": "Oxa1"},
      {"measurement": "Physical stability upon drying under deep/high vacuum", "setting": "[2]; oxalate, phosphate, malonate forms, 5 mbar, 18 h", "value": "physically stable"},
      {"measurement": "Solubility in phosphate buffer", "setting": "[3]; 0.2 M phosphate buffer pH 6, 37° C., 4 hours", "value": 30, "unit": "µg/mL"},
      {"measurement": "solubility", "setting": "[3]; 0.2M phosphate buffer pH 6, 37° C., 4 hours, about 1 mg salt in 1 mL", "value": 20, "unit": "µg/mL"},
      {"measurement": "solubility", "setting": "[3]; 0.2M phosphate buffer pH 6, 37° C., 4 hours, about 5 mg salt in 1 mL", "value": 30, "unit": "µg/mL"},
      {"measurement": "Solids recovered / salt dissociation after solubility determination in buffer", "setting": "[3]; 0.2 M phosphate buffer pH 6, 37° C., 4 hours, XRPD", "value": "The salt had dissociated in the buffer"},
      {"measurement": "Form (4 h) of residual solid", "setting": "[3]; [6]", "value": "Am"},
      {"measurement": "pH (4 h)", "setting": "[3]; [6]", "value": 6.0},
      {"measurement": "Form (4 h) of residual solid", "setting": "[3]; [7]", "value": "Free"},
      {"measurement": "pH (4 h)", "setting": "[3]; [7]", "value": 5.8},
      {"measurement": "solubility", "setting": "[3]; water, 37° C., 4 hours, about 1 mg salt in 1 mL", "value": "hazy"},
      {"measurement": "solubility", "setting": "[3]; water, 37° C., 4 hours, about 5 mg salt, up to 1 mL", "value": "hazy"},
      {"measurement": "Solids recovered after solubility determination in water", "setting": "[3]; water, 37° C., 4 hours, XRPD", "value": "The residual solids of the suspension were identical to Oxa1"},
      {"measurement": "Form (4 h) of residual solid", "setting": "[3]; [8]", "value": "Free"},
      {"measurement": "pH (4 h)", "setting": "[3]; [8]", "value": 4.4},
      {"measurement": "Form (4 h) of residual solid", "setting": "[3]; [9]", "value": "Oxa1"},
      {"measurement": "pH (4 h)", "setting": "[3]; [9]", "value": 4.3}
    ]},
    {"smiles": "CN1CC[C@@H](c2c(O)cc(O)c3c(=O)cc(-c4ccc(C(F)(F)F)cc4Cl)oc23)[C@@H]1CO", "note": "[Voruciclib, (+)-trans-2-(2-chloro-4-trifluoromethylphenyl)-5,7-dihydroxy-8-(2-hydroxymethyl-1-methylpyrrolidin-3-yl)-chromen-4-one]", "values": [
      {"measurement": "Solubility at RT", "setting": "[4]; 1,4-Dioxane", "value": "~1000", "unit": "µg/mL"},
      {"measurement": "Solubility at RT", "setting": "[4]; 2-Propanol", "value": "~8000", "unit": "µg/mL"},
      {"measurement": "Solubility at RT", "setting": "[4]; Acetonitrile", "value": "~5000", "unit": "µg/mL"},
      {"measurement": "Solubility at RT", "setting": "[4]; Chloroform", "value": "~5000", "unit": "µg/mL"},
      {"measurement": "Solubility at RT", "setting": "[4]; Ethyl acetate", "value": "~1000", "unit": "µg/mL"},
      {"measurement": "Solubility in words", "setting": "[4]; THF", "value": "soluble"},
      {"measurement": "Solubility at RT", "setting": "[4]; Water", "value": "<1000", "unit": "µg/mL"},
      {"measurement": "Solubility in words", "setting": "[4]; methanol, ethanol and acetone", "value": "sparingly soluble"},
      {"measurement": "solubility", "setting": "[4]; organic solvent or mixture, 1,4-Dioxane, approximate, solvent addition, read-out: Solubility", "value": "~1000", "unit": "µg/mL"},
      {"measurement": "solubility", "setting": "[4]; organic solvent or mixture, 2-Propanol, approximate, solvent addition, read-out: Solubility", "value": "~8000", "unit": "µg/mL"},
      {"measurement": "solubility", "setting": "[4]; organic solvent or mixture, Acetone, approximate, solvent addition, read-out: Solubility", "value": "10000 to 13000", "unit": "µg/mL"},
      {"measurement": "solubility", "setting": "[4]; organic solvent or mixture, Acetonitrile, approximate, solvent addition, read-out: Solubility", "value": "~5000", "unit": "µg/mL"},
      {"measurement": "solubility", "setting": "[4]; organic solvent or mixture, Chloroform, approximate, solvent addition, read-out: Solubility", "value": "~5000", "unit": "µg/mL"},
      {"measurement": "solubility", "setting": "[4]; organic solvent or mixture, Ethanol, approximate, solvent addition, read-out: Solubility", "value": "14000 to 18000", "unit": "µg/mL"},
      {"measurement": "solubility", "setting": "[4]; organic solvent or mixture, Ethyl acetate, approximate, solvent addition, read-out: Solubility", "value": "~1000", "unit": "µg/mL"},
      {"measurement": "solubility", "setting": "[4]; organic solvent or mixture, Methanol, approximate, solvent addition, read-out: Solubility", "value": "17000 to 26000", "unit": "µg/mL"},
      {"measurement": "solubility", "setting": "[4]; organic solvent or mixture, Tetrahydrofuran, approximate, solvent addition, read-out: Solubility", "value": "30000 to 60000", "unit": "µg/mL"},
      {"measurement": "solubility", "setting": "[4]; organic solvent or mixture, solvents other than THF, methanol, ethanol, acetone, read-out: Solubility in other solvents", "value": "< 10000", "unit": "µg/mL"},
      {"measurement": "solubility", "setting": "[4]; Water, approximate, solvent addition, read-out: Solubility", "value": "< 1000", "unit": "µg/mL"},
      {"measurement": "Solubility in words", "setting": "[4]; water", "value": "practically insoluble"},
      {"measurement": "Area (HPLC)", "setting": "[5]; Acetone solution, 25° C.", "value": 1562.10, "unit": "mAu*s"},
      {"measurement": "Area (HPLC)", "setting": "[5]; Acetone solution, 50° C.", "value": 1566.22, "unit": "mAu*s"},
      {"measurement": "Area (HPLC)", "setting": "[5]; Acetone solution, 80° C.", "value": 1566.56, "unit": "mAu*s"},
      {"measurement": "Area (HPLC)", "setting": "[5]; Ethanol solution, 25° C.", "value": 1633.32, "unit": "mAu*s"},
      {"measurement": "Area (HPLC)", "setting": "[5]; Ethanol solution, 50° C.", "value": 1625.98, "unit": "mAu*s"},
      {"measurement": "Area (HPLC)", "setting": "[5]; Ethanol solution, 80° C.", "value": 1625.83, "unit": "mAu*s"},
      {"measurement": "Thermal stability in solution", "setting": "[5]; THF, ethanol, acetone solutions, RT 24 h, 50° C. and 80° C. 1 h, HPLC purity", "value": "thermally stable in solution"},
      {"measurement": "Area (HPLC)", "setting": "[5]; Tetrahydrofuran solution, 25° C.", "value": 1697.99, "unit": "mAu*s"},
      {"measurement": "Area (HPLC)", "setting": "[5]; Tetrahydrofuran solution, 50° C.", "value": 1713.96, "unit": "mAu*s"},
      {"measurement": "Area (HPLC)", "setting": "[5]; Tetrahydrofuran solution, 80° C.", "value": 1701.15, "unit": "mAu*s"},
      {"measurement": "Solubility pH 6", "setting": "[3]; 0.2M phosphate buffer (pH 6), 37° C., 4 hours, listed as Voruciclib Free base", "value": 0.01, "unit": "mg/mL"},
      {"measurement": "Solubility water", "setting": "[3]; water, 37° C., 4 hours, listed as Voruciclib Free base", "value": "<10", "unit": "µg/mL"}
    ]}
  ]
}
